Test results taken from PubChem BioAssay (NCI).
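How tested: cells in 96-well plates exposed to compound for 48 hours at five concentrations. The concentration for 50% growth inhibition is given as GI50. TGI marks complete inhibition of growth.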

Assays:
Assay in all cases: NCI-60 cell line screen, 48 h
MOLT-4 leukemia = tested on: MOLT-4 leukemia
HS 578T breast = tested on: HS 578T breast
M14 melanoma = tested on: M14 melanoma
K-562 leukemia = tested on: K-562 leukemia
CAKI-1 renal = tested on: CAKI-1 renal
EKVX NSCLC = tested on: EKVX NSCLC
IGROV1 ovarian = tested on: IGROV1 ovarian
SK-OV-3 ovarian = tested on: SK-OV-3 ovarian
NCI-H522 lung = tested on: NCI-H522 lung
HT29 colon = tested on: HT29 colon
OVCAR-4 ovarian = tested on: OVCAR-4 ovarian
SF-295 CNS = tested on: SF-295 CNS
SK-MEL-28 melanoma = tested on: SK-MEL-28 melanoma
NCI-H460 lung = tested on: NCI-H460 lung
SNB-19 CNS = tested on: SNB-19 CNS
T-47D breast = tested on: T-47D breast
KM12 colon = tested on: KM12 colon
SR leukemia = tested on: SR leukemia
NCI-H23 lung = tested on: NCI-H23 lung
OVCAR-5 ovarian = tested on: OVCAR-5 ovarian
A498 renal = tested on: A498 renal
NCI/ADR-RES ovarian = tested on: NCI/ADR-RES ovarian
HCT-116 colon = tested on: HCT-116 colon
HOP-62 NSCLC = tested on: HOP-62 NSCLC
OVCAR-8 ovarian = tested on: OVCAR-8 ovarian
HOP-92 NSCLC = tested on: HOP-92 NSCLC
OVCAR-3 ovarian = tested on: OVCAR-3 ovarian
BT-549 breast = tested on: BT-549 breast
HCT-15 colon = tested on: HCT-15 colon
DU-145 prostate = tested on: DU-145 prostate
HCC-2998 colon = tested on: HCC-2998 colon
RPMI-8226 leukemia = tested on: RPMI-8226 leukemia
A549 NSCLC = tested on: A549 NSCLC
SN12C renal = tested on: SN12C renal
UO-31 renal = tested on: UO-31 renal
LOX IMVI melanoma = tested on: LOX IMVI melanoma
MALME-3M melanoma = tested on: MALME-3M melanoma
U251 CNS = tested on: U251 CNS
SF-539 CNS = tested on: SF-539 CNS
TK-10 renal = tested on: TK-10 renal
RXF 393 renal = tested on: RXF 393 renal
CCRF-CEM leukemia = tested on: CCRF-CEM leukemia
UACC-62 melanoma = tested on: UACC-62 melanoma
UACC-257 melanoma = tested on: UACC-257 melanoma
HL-60(TB) leukemia = tested on: HL-60(TB) leukemia
ACHN renal = tested on: ACHN renal
MDA-MB-231 breast = tested on: MDA-MB-231 breast
MCF7 breast = tested on: MCF7 breast
SNB-75 CNS = tested on: SNB-75 CNS
SK-MEL-5 melanoma = tested on: SK-MEL-5 melanoma
SF-268 CNS = tested on: SF-268 CNS
PC-3 prostate = tested on: PC-3 prostate
COLO 205 colon = tested on: COLO 205 colon
SK-MEL-2 melanoma = tested on: SK-MEL-2 melanoma
MDA-MB-435 = tested on: MDA-MB-435
786-0 renal = tested on: 786-0 renal
NCI-H226 lung = tested on: NCI-H226 lung
SW-620 colon = tested on: SW-620 colon

## NCCCCCCn1c2c(c3ccccc3c1=O)C(=O)c1ccccc1-2
MOLT-4 leukemia
  GI50: 237 nM
  TGI: 972 nM
HS 578T breast
  GI50: 2510 nM
  TGI: 11100 nM
M14 melanoma
  GI50: 2280 nM
  TGI: 5000 nM
K-562 leukemia
  GI50: 705 nM
  TGI: 5350 nM
CAKI-1 renal
  GI50: 1960 nM
  TGI: 8250 nM
EKVX NSCLC
  GI50: 10300 nM
  TGI: 28800 nM
IGROV1 ovarian
  GI50: 1070 nM
  TGI: 4310 nM
SK-OV-3 ovarian
  GI50: 720 nM
  TGI: 7420 nM
NCI-H522 lung
  GI50: 1170 nM
  TGI: 2880 nM
HT29 colon
  GI50: 1200 nM
  TGI: 4420 nM
OVCAR-4 ovarian
  GI50: 2190 nM
  TGI: 7240 nM
SF-295 CNS
  GI50: 1470 nM
  TGI: 5560 nM
SK-MEL-28 melanoma
  GI50: 1900 nM
  TGI: 3760 nM
NCI-H460 lung
  GI50: 415 nM
  TGI: 11300 nM
SNB-19 CNS
  GI50: 1190 nM
  TGI: 10100 nM
T-47D breast
  GI50: 1850 nM
  TGI: 5930 nM
KM12 colon
  GI50: 1380 nM
  TGI: 6900 nM
SR leukemia
  GI50: 349 nM
  TGI: 2090 nM
NCI-H23 lung
  GI50: 1500 nM
  TGI: 6540 nM
OVCAR-5 ovarian
  GI50: 1880 nM
  TGI: 4600 nM
A498 renal
  GI50: 675 nM
  TGI: 2970 nM
NCI/ADR-RES ovarian
  GI50: 2460 nM
  TGI: 11700 nM
HCT-116 colon
  GI50: 909 nM
  TGI: 6110 nM
HOP-62 NSCLC
  GI50: 1280 nM
  TGI: 4500 nM
OVCAR-8 ovarian
  GI50: 1540 nM
  TGI: 11300 nM
HOP-92 NSCLC
  GI50: 2570 nM
  TGI: 16000 nM
OVCAR-3 ovarian
  GI50: 1980 nM
  TGI: 6240 nM
BT-549 breast
  GI50: 1800 nM
  TGI: 4730 nM
HCT-15 colon
  GI50: 717 nM
  TGI: 5860 nM
DU-145 prostate
  GI50: 608 nM
  TGI: > 100000 nM
HCC-2998 colon
  GI50: 2250 nM
  TGI: 14300 nM
RPMI-8226 leukemia
  GI50: 1530 nM
  TGI: 6070 nM
A549 NSCLC
  GI50: 1220 nM
  TGI: 25800 nM
SN12C renal
  GI50: 1330 nM
  TGI: 6090 nM
UO-31 renal
  GI50: 442 nM
  TGI: 1850 nM
LOX IMVI melanoma
  GI50: 1120 nM
  TGI: 2990 nM
MALME-3M melanoma
  GI50: 1910 nM
  TGI: 4610 nM
U251 CNS
  GI50: 1430 nM
  TGI: 12300 nM
SF-539 CNS
  GI50: 1240 nM
  TGI: 3590 nM
TK-10 renal
  GI50: 1650 nM
  TGI: 3820 nM
RXF 393 renal
  GI50: 12000 nM
  TGI: 64800 nM
CCRF-CEM leukemia
  GI50: 512 nM
  TGI: 3210 nM
UACC-62 melanoma
  GI50: 1630 nM
  TGI: 3500 nM
UACC-257 melanoma
  GI50: 2360 nM
  TGI: 5800 nM
HL-60(TB) leukemia
  GI50: 266 nM
  TGI: 1420 nM
ACHN renal
  GI50: 526 nM
  TGI: 2710 nM
MDA-MB-231 breast
  GI50: 1980 nM
  TGI: 5460 nM
MCF7 breast
  GI50: 744 nM
  TGI: 3610 nM
SNB-75 CNS
  GI50: 1750 nM
  TGI: 7720 nM
SK-MEL-5 melanoma
  GI50: 1300 nM
  TGI: 2750 nM
SF-268 CNS
  GI50: 2300 nM
  TGI: 16200 nM
PC-3 prostate
  GI50: 2120 nM
  TGI: 11800 nM
COLO 205 colon
  GI50: 1600 nM
  TGI: 13700 nM
SK-MEL-2 melanoma
  GI50: 1870 nM
  TGI: 3540 nM
MDA-MB-435
  GI50: 2050 nM
  TGI: 4760 nM
786-0 renal
  GI50: 603 nM
  TGI: > 100000 nM
NCI-H226 lung
  GI50: 1080 nM
  TGI: 3070 nM
SW-620 colon
  GI50: 613 nM
  TGI: 3160 nM
